Values of other authors, collected in patent US9445992B2, “Mucosal delivery compositions comprising a peptide complexed with a crown compound and/or a counter ion” (ARISGEN SA, priority 2009, dated 2016).

Details: in water

pKa: < 2
Structure (SMILES): CCCCCCCCCCCC(=O)OC[C@H](COP(=O)(O)OCC(O)CO)OC(=O)CCCCCCCCCCC (stereo partly shown) [DLPG, dilauryloylphosphatidylglycerol]
